Measurements published in patent US6933290B2, “2-{N-(2-amino-3-(heteroaryl or aryl)propionyl)-aminoacyl}-amino}-alkylboronic acid derivatives” (Novartis AG, priority 2001, dated 2005).
Values joined by “and” are separate entries in the source; they are usually repeats but may differ in a detail not shown here. Identical values can stand only once.

Target: T1, chymotrypsin-like activity of the 20S proteasome (Homo sapiens, UniProt P20618+P28074)
T1 construct: purified human placenta 20S proteasome; tissue Diabetes Forschungsinstitut, Düsseldorf, Germany; host or cells: human placenta
Assay: Inhibition of the chymotrypsin-like activity of the 20S proteasome (Suc-LLVY-AMC hydrolysis)
Type: biochemical
Conditions: purified human placenta 20S proteasome, Suc-LLVY-AMC substrate, read-out: IC50 [μM] (results of one or two experiments)
From the text: It is based on the hydrolysis of the fluorogenic peptide Suc-LLVY-AMC (Succinyl-leucine-leucine-vatine-tyrosine-7-amino-4-methyl-coumarin), which is cleaved exclusively at the Y-AMC bond by the 20S proteasome. Hydrolysis of this peptide is accompanied by an increase in fluorescence intensity (λex (excitation wavelength): 355 nm; μem (emission wavelength): 460 nm) due to release of the […] that accompanies diffusion apart of the hydrolysis product Suc-LLVY.
2 μl of a 1 mM solution of a test compound in DMSO (dimethylsulfoxide, 20 μM final concentration in the well) are preincubated for 60 min at room temperature in black 96-well microtiter plates together with a mixture of 1 μl purified human placenta 20S proteasome (Diabetes Forschungsinstitut, DÜsseldorf, Germany; about 100 ng proteasome, depending on the proteasome preparation) and 47 μl buffer-Ca (5 mM CaCl2, 20 mM Tris/HCl (Tris-(hydroxymethyl)-amino-methane hydrochloride) pH 8.0). 3 μl of a 2.67 mM solution of Suc-LLVY-AMC (Bachem, Switzerland) in DMSO (80 μM final concentration in the well) and 47 μl buffer-Ca are mixed and added. The resulting mixture is incubated for 3-24 h at 37° C. If desired, proteolysis of the substrate can be stopped by addition of 50 μl stop solution (100 mM monochloroacetic acid, 130 mM NaOH, 100 mM acetic acid, pH=4.3). The fluorescence is monitored with a FLUOROSKAN ASCENT™ microtiter plate reader.
For each measurement series two control experiments are carried out: • 1.) 0% value: 2 μl DMSO are used in the above described assay instead of 2 μl of a 1 mM solution of a test compound in DMSO and 48 μl buffer-Ca instead of a mixture of 47 μl buffer-Ca and 1 μl purified proteasome. • 2.) 100% value: in the above described assay 2 μl DMSO are used instead of 2 μl of a 1 mM solution of the test compound in DMSO. Calculation [formula]
The IC50 value is defined as that concentration of a compound at which the remaining activity is 50% compared to the […].

Row | Structure (SMILES) | IC50
1 | COc1cc(C[C@H](Nc2cccc(-c3ccccc3)c2)C(=O)N[C@H](C(=O)N[C@@H](CC(C)C)B2O[C@@H]3C[C@@H]4C[C@@H](C4(C)C)[C@]3(C)O2)C(C)C)cc(OC)c1OC [Example 1, (S)-2-[(S)-2-(Biphenyl-3-ylamino)-3-(3,4,5-trimethoxy-phenyl)-propionylamino]-3-methyl-N-[(R)-3-methyl-1-((1S,2S,6R,8S)-2,9,9-trimethyl-3,5-dioxa-4-bora-tricyclo[6.1.1.0^2,6]dec-4-yl)-butyl]-butyramide] | 0.0046 µM and 0.0024 µM
2 | COc1cc(C[C@H](Nc2cccc(-c3ccccc3)c2)C(=O)N[C@H](C(=O)N[C@@H](CC(C)C)B(O)O)C(C)C)cc(OC)c1OC [Example 2, (R)-1-{(S)-2-[(S)-2-(Biphenyl-3-ylamino)-3-(3,4,5-trimethoxy-phenyl)-propionylamino]-3-methyl-butyrylamino}-3-methyl-butylboronic acid] | 0.0028 µM and 0.0021 µM
3 | COc1ccc(C[C@H](NC(=O)Cc2cccc(Oc3ccccc3)c2)C(=O)N[C@H](C(=O)N[C@@H](CC(C)C)B2O[C@@H]3C[C@@H]4C[C@@H](C4(C)C)[C@]3(C)O2)C(C)C)c(OC)c1OC [Example 3, (S)-3-Methyl-N-[(R)-3-methyl-1-((1S,2S,6R,8S)-2,9,9-trimethyl-3,5-dioxa-4-bora-tricyclo[6.1.1.0^2,6]dec-4-yl)-butyl]-2-[(S)-2-[2-(3-phenoxy-phenyl)-acetylamino]-3-(2,3,4-trimethoxy-phenyl)-propionylamino]-butyramide] | 0.0017 µM and 0.0014 µM
4 | COc1ccc(C[C@H](NC(=O)Cc2cccc(Oc3ccccc3)c2)C(=O)N[C@H](C(=O)N[C@@H](CC(C)C)B(O)O)C(C)C)c(OC)c1OC [Example 4] | 0.0019 µM and 0.0015 µM
5 | COc1ccc(C[C@H](NC(=O)CCc2ccccc2)C(=O)N[C@H](C(=O)N[C@@H](CC(C)C)B2O[C@@H]3C[C@@H]4C[C@@H](C4(C)C)[C@]3(C)O2)C(C)C)c(OC)c1OC [Example 5, (S)-3-Methyl-N-[(R)-3-methyl-1-((1S,2S,6R,8S)-2,9,9-trimethyl-3,5-dioxa-4-bora-tricyclo[6.1.1.0^2,6]dec-4-yl)-butyl]-2-[(S)-2-(3-phenyl-propionyl-amino)-3-(2,3,4-trimethoxyphenyl)-propionylamino]-butyramide] | 0.0013 µM and 0.0006 µM
6 | COc1ccc(C[C@H](NC(=O)CCc2ccccc2)C(=O)N[C@H](C(=O)N[C@@H](CC(C)C)B(O)O)C(C)C)c(OC)c1OC [Example 6, (R)-3-Methyl-1-{(S)-3-methyl-2-[(S)-2-(3-phenyl-propionylamino)-3-(2,3,4-trimethoxy-phenyl)-propionylamino]-butyrylamino}-butylboronic acid] | 0.0018 µM and 0.0019 µM
7 | COc1ccc(C[C@H](Nc2cccc(-c3ccccc3)c2)C(=O)N[C@H](C(=O)N[C@@H](CC(C)C)B2O[C@@H]3C[C@@H]4C[C@@H](C4(C)C)[C@]3(C)O2)C(C)C)cc1 [Example 7, (S)-2-[(S)-2-(Biphenyl-3-ylamino)-3-(4-methoxy-phenyl)-propionylamino]-3-methyl-N-[(R)-3-methyl-1-((1S,2S,6R,8S)-2,9,9-trimethyl-3,5-dioxa-4-bora-tricyclo[6.1.1.0^2,6]dec-4-yl)-butyl]-butyramide] | 0.0029 µM and 0.0032 µM
8 | COc1ccc(C[C@H](Nc2cccc(-c3ccccc3)c2)C(=O)N[C@H](C(=O)N[C@@H](CC(C)C)B(O)O)C(C)C)cc1 [Example 8, (R)-1-{(S)-2-[(S)-2-(Biphenyl-3-ylamino)-3-(4-methoxy-phenyl)-propionylamino]-3-methyl-butyrylamino}-3-methyl-butylboronic acid] | 0.0028 µM and 0.0045 µM
9 | COc1ccc(C[C@H](Nc2cccc(-c3ccccc3)c2)C(=O)N[C@H](C(=O)N[C@@H](CC(C)C)B2O[C@@H]3C[C@@H]4C[C@@H](C4(C)C)[C@]3(C)O2)C(C)C)cc1OC [Example 9, (S)-2-[(S)-2-(Biphenyl-3-ylamino)-3-(3,4-dimethoxy-phenyl)-propionylamino]-3-methyl-N-[(R)-3-methyl-1-((1S,2S,6R,8S)-2,9,9-trimethyl-3,5-dioxa-4-bora-tricyclo[6.1.1.0^2,6]dec-4-yl)-butyl]-butyramide] | 0.0017 µM and 0.0022 µM
10 | COc1ccc(C[C@H](Nc2cccc(-c3ccccc3)c2)C(=O)N[C@H](C(=O)N[C@@H](CC(C)C)B(O)O)C(C)C)cc1OC [Example 10, (R)-1-{(S)-2-[(S)-2-(Biphenyl-3-ylamino)-3-(3,4-dimethoxy-phenyl)-propionylamino]-3-methyl-butyrylamino}-3-methyl-butylboronic acid] | 0.0029 µM and 0.004 µM
11 | COc1cc(C[C@H](Nc2cccc(C(C)C)c2)C(=O)N[C@H](C(=O)N[C@@H](CC(C)C)B2O[C@@H]3C[C@@H]4C[C@@H](C4(C)C)[C@]3(C)O2)C(C)C)cc(OC)c1OC [Example 11, (S)-2-[(S)-2-(3-Isopropyl-phenylamino)-3-(3,4,5-trimethoxy-phenyl)-propionylamino]-3-methyl-N-[(R)-3-methyl-1-((1S,2S,6R,8S)-2,9,9-trimethyl-3,5-dioxa-4-bora-tricyclo[6.1.1.0^2,6]dec-4-yl)-butyl]-butyramide] | 0.0039 µM
12 | COc1cc(C[C@@H](Nc2cccc(-c3ccccc3)c2)C(=O)N[C@H](C(=O)N[C@@H](CC(C)C)B2O[C@@H]3C[C@@H]4C[C@@H](C4(C)C)[C@]3(C)O2)C(C)C)cc(OC)c1OC [Example 21, (S)-2-[(R)-2-(Biphenyl-3-ylamino)-3-(3,4,5-trimethoxy-phenyl)-propionylamino]-3-methyl-N-[(R)-3-methyl-1-((1S,2S,6R,8S)-2,9,9-trimethyl-3,5-dioxa-4-bora-tricyclo[6.1.1.0^2]dec-4-yl)-butyl]-butyramide] | 0.0015 µM

Second part, the compound after the results:

Row | IC50 | Structure (SMILES)
13 | 0.0038 µM | COc1cc(C[C@H](Nc2cccc(C(C)C)c2)C(=O)N[C@H](C(=O)N[C@@H](CC(C)C)B(O)O)C(C)C)cc(OC)c1OC [Example 12, (R)-1-{(S)-2-[(S)-2-(3-Isopropyl-phenylamino)-3-(3,4,5-trimethoxy-phenyl)-propionylamino]-3-methyl-butyrylamino}-3-methyl-butylboronic acid]
14 | 0.0013 µM | COc1cc(C[C@H](Nc2cccc(-c3ccccn3)c2)C(=O)N[C@H](C(=O)N[C@@H](CC(C)C)B2O[C@@H]3C[C@@H]4C[C@@H](C4(C)C)[C@]3(C)O2)C(C)C)cc(OC)c1OC [Example 13, (S)-3-Methyl-N-[(R)-3-methyl-1-((1S,2S,6R,8S)-2,9,9-trimethyl-3,5-dioxa-4-bora-tricyclo[6.1.1.0^2,6]dec-4-yl)-butyl]-2-[(S)-2-(3-pyridin-2-yl-phenylamino)-3-(3,4,5-trimethoxy-phenyl)-propionylamino]-butyramide]
15 | 0.0017 µM | COc1cc(C[C@H](Nc2cccc(-c3ccccn3)c2)C(=O)N[C@H](C(=O)N[C@@H](CC(C)C)B(O)O)C(C)C)cc(OC)c1OC [Example 14, (R)-3-Methyl-1-[(S)-3-methyl-2-[(S)-2-(3-pyridin-2-yl-phenylamino)-3-(3,4,5-trimethoxy-phenyl)-propionylamino]-butyrylamino)-butylboronic acid]
16 | 0.0071 µM | COc1ccc(C[C@H](Nc2cccc(-c3ccccc3)c2)C(=O)N[C@H](C(=O)N[C@@H](CC(C)C)B2O[C@@H]3C[C@@H]4C[C@@H](C4(C)C)[C@]3(C)O2)C(C)C)c(OC)c1OC [Example 15, (S)-2-[(S)-2-(Biphenyl-3-ylamino)-3-(2,3,4-trimethoxy-phenyl)-propionylamino]-3-methyl-N-[(R)-3-methyl-1-((1S,2S,6R,8S)-2,9,9-trimethyl-3,5-dioxa-4-bora-tricyclo[6.1.1.0^2,6]dec-4-yl)-butyl]-butyramide]
17 | 0.0059 µM | COc1ccc(C[C@H](Nc2cccc(-c3ccccc3)c2)C(=O)N[C@H](C(=O)N[C@@H](CC(C)C)B(O)O)C(C)C)c(OC)c1OC [Example 16, (R)-1-{(S)-2-[(S)-2-(Biphenyl-3-ylamino)-3-(2,3,4-trimethoxy-phenyl)-propionylamino]-3-methyl-butyrylamino}-3-methyl-butylboronic acid]
18 | 0.0093 µM | CC(C)C[C@H](NC(=O)[C@@H](NC(=O)[C@H](Cc1ccc(OCc2ccccc2)cc1)Nc1cccc(-c2ccccc2)c1)C(C)C)B1O[C@@H]2C[C@@H]3C[C@@H](C3(C)C)[C@]2(C)O1 [Example 17, (S)-2-[(S)-3-(4-Benzyloxy-phenyl)-2-(biphenyl-3-ylamino)-propionylamino]-3-methyl-N-[(R)-3-methyl-1-((1S,2S,6R,8S)-2,9-trimethyl-3,5-dioxa-4-bora-tricyclo[6.1.1.0^2,6]dec-4-yl)-butyl]-butyramide]
19 | 0.0015 µM | CC(C)C[C@H](NC(=O)[C@@H](NC(=O)[C@H](Cc1ccc(OCc2ccccc2)cc1)Nc1cccc(-c2ccccc2)c1)C(C)C)B(O)O [Example 18, (R)-1-{(S)-2-[(S)-3-(4-Benzyloxy-phenyl)-2-(biphenyl-3-ylamino)-propionylamino]-3-methyl-butyrylamino}-3-methyl-butylboronic acid]
